Results: US4868176A, “Novel imidazobenzodiazepines” (Roussel Uclaf, priority 1987, dated 1989)

Tested on: leptazol induced seizures in mice
Experiment: potentiation of the threshold of leptazol induced seizures in mice
Type: in vivo
Details: ip
Protocol: Potentiation of the threshold of leptazol induced seizures in mice by active compounds was measured by the method of Lichfiel et al (J. Pharmacol. Exp. Ther. (1949) Vol. 96 Page. 99).

SMILES | ED50 (Mus musculus) | Leptazol Seizures ED50
CN1Cc2c(C(=O)C3CC3)ncn2-c2ccccc2C1=O [Compound 1, 3-(5,6-dihydro-5-methyl-6-oxo-4H-imidazo[1,5a][1,4]benzodiazepinyl)-cyclopropylmethanone] | 1 to 2 mg/kg | 
CN1Cc2c(C(=O)C3CC3)ncn2-c2ccc(Cl)cc2C1=O [Compound 2, (8-Chloro-5,6-dihydro-5-methyl-6-oxo-4H-imidazo[1,5-a][1,4]benzodiazepin-3-yl)-cyclopropylmethanone] |  | Not active
